The assay concerns autophagy flux (LC3-II) in HepG2 cell line. The experiment in a line: Autophagy flux, LC3-II immunoblot with/without Bafilomycin, HepG2 cell line. It is filed as cell-based. The conditions noted are these: 4 hours and 24 hours of treatment. Here is the method: Since compound 2-3 induced an inhibition of the proteolytic activity of cathepsins B, D and/or L (see example 1) supporting an inhibition of some lysosomal functions which can affect the cellular autophagy flux, the capacity of compound 2-3 to modulate the cellular autophagy processes and functions was evaluated in two Hepatocellular carcinoma (HCC) cell lines: Huh7 and HepG2. For this purpose, the accumulation of LC3-II (Light Chain 3 phosphatidylethanolamine conjugate) in presence or absence of compound 2-3 was analyzed using immunoblot analysis of LC3-II.
The HepG2 cell line was maintained in DMEM low glucose (Cat #21885025, ThermoFischer) containing 1% penicillin-streptomycin (Cat #P06-07100, Dutscher) and 10% FBS (Cat #SV30160.03C, Dutscher). The Huh7 cell line was maintained in DMEM high glucose (Cat #L0103-500, Dutscher) containing 1% penicillin-streptomycin (Cat #P06-07100, Dutscher) and 10% SVF (Cat #SV30160.03C, Dutscher). Cells lines were cultured at 37° C. with 5% CO2.
The day before the experiment, 6-well plates with 250,000 cells for HepG2 and 310,000 cells for Huh7 in 1.8 mL of medium per well were prepared. […]
After 4 hours and 24 hours of cells treatment, the medium was removed from each well. […] Total protein concentration was assessed using the BCA reagent (Cat #23227, ThermoFischer) and cellular lysates were stored at −80° C. until western-blot analysis. […]

Entries after “also recorded” stand apart in the source; their conditions may differ. Structures can show the parent of a compound that is named as a salt.

Regarding `CC(C)(C)NC1CCN(c2cc(NCc3ccc(Cl)cc3)nc3ccccc23)CC1` [2-3, 2-(4-chlorobenzylamino)-4-(4-tert-butylaminopiperidin-1-yl)-quinoline Hydrochloride Salt], the “accumulation of the LC3-II form” value is listed as “significantly induced, in a dose-dependent manner, an accumulation of the LC3-II form”. The “autophagy flux (LC3-II Baf+/Baf− ratio)” value (Hydrochloride Salt) is recorded as “inhibition; also recorded: inhibitor of the autophagy flux”.

The values above are taken from patent US11261189B2, “Substituted 2,4 diamino-quinoline as new medicament for fibrosis, autophagy and cathepsins B (CTSB), L (CTSL) and D (CTSD) related diseases” (Genoscience Pharma, priority 2018, dated 2022).
